Measurements: PubChem BioAssay (NCI)
Where “and” joins values, the source holds several entries; their conditions need not be identical. Equal values may be shown once.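 All cell lines were grown in 96-well plates and treated with compound for 48 hours. Abbreviation: GI50, concentration required for 50% inhibition of growth. Definition used: TGI = concentration required for complete inhibition of growth.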 Where a SMILES comes first, the peptide text is derived from it. [ ]: non-standard residue; d: D form. pGlu = O=C1CC[CH](C(=O)O)N1

Key:
Experiment in all cases: NCI-60 cell line screen, 48 h
NCI-H522 lung = test system: NCI-H522 lung
SK-MEL-5 melanoma = test system: SK-MEL-5 melanoma
RPMI-8226 leukemia = test system: RPMI-8226 leukemia
NCI-H226 lung = test system: NCI-H226 lung
KM12 colon = test system: KM12 colon
SNB-19 CNS = test system: SNB-19 CNS
UACC-257 melanoma = test system: UACC-257 melanoma
DU-145 prostate = test system: DU-145 prostate
OVCAR-8 ovarian = test system: OVCAR-8 ovarian
SK-MEL-2 melanoma = test system: SK-MEL-2 melanoma

Compound | TGI (NCI-H522 lung) | TGI (SK-MEL-5 melanoma) | TGI (RPMI-8226 leukemia) | TGI (NCI-H226 lung) | TGI (KM12 colon) | TGI (SNB-19 CNS) | TGI (UACC-257 melanoma) | TGI (DU-145 prostate) | TGI (OVCAR-8 ovarian) | TGI (SK-MEL-2 melanoma) | GI50 (NCI-H522 lung) | GI50 (SK-MEL-5 melanoma) | GI50 (RPMI-8226 leukemia) | GI50 (NCI-H226 lung) | GI50 (KM12 colon) | GI50 (SNB-19 CNS) | GI50 (UACC-257 melanoma) | GI50 (DU-145 prostate) | GI50 (OVCAR-8 ovarian) | GI50 (SK-MEL-2 melanoma)
C=CCOc1cc(NC(=S)c2ccoc2C)ccc1OC | > 100 µM | > 100 µM | > 100 µM | > 100 µM | > 100 µM | > 100 µM | > 100 µM | > 100 µM | > 100 µM | > 100 µM |  |  |  |  |  |  |  |  |  | 
N=C1C(c2nc3ccccc3s2)=C(O)CN1c1ccc(F)c(Cl)c1 | 63.2 µM | 49.5 µM | > 100 µM | 55.4 µM | > 100 µM | 85.7 µM | > 100 µM | > 100 µM | 33.4 µM | > 100 µM | 11.5 µM | 14600 nM | 18900 nM | 6.11 µM | 73900 nM | 21.5 µM | 22.9 µM | 36.1 µM | 12.6 µM | 39 µM
COc1ccc(-c2nn(-c3cccc(Cl)c3)cc2-c2cc(-c3cccs3)[nH]c(=S)n2)cc1 | 8.86 µM | 10.9 µM | 10.9 µM | 54.4 µM | 14.4 µM | > 100 µM | 18 µM | 72.5 µM | > 100 µM | 6.9 µM | 2.54 µM | 2930 nM | 2420 nM | 3.16 µM | 3670 nM | 4.93 µM | 3.06 µM | 5.49 µM | 3.15 µM | 2.87 µM
CC[C@@H]1c2c(C#N)ncn2-c2cnc(Nc3ccc(C(=O)NC4CCN(C5CCN(CC6CC6)CC5)CC4)cc3OC)nc2N1C1CCCC1 | 0.126 µM | 1.52 µM and 1.68 µM | 2.97 µM | 2.64 µM | 1.07 µM and 1.05 µM | 2.05 µM | 1.67 µM | 0.072 µM and 0.246 µM |  | 1.82 µM | 0.023 µM | 130 nM and 182 nM | 83 nM | 1.31 µM | 36.3 nM and 33.8 nM | 0.0668 µM | 0.0431 µM | 0.0235 µM and 0.0353 µM |  | 0.0407 µM
O=c1[nH]c(=O)c2cn[nH]c2[nH]1 | > 100 µM | > 100 µM | > 100 µM | > 100 µM | > 100 µM | > 100 µM | > 100 µM | > 100 µM | > 100 µM | > 100 µM | > 100 µM | > 100000 nM | > 100000 nM | > 100 µM | > 100000 nM | > 100 µM | > 100 µM | > 100 µM | > 100 µM | > 100 µM
CSC(=Nc1nnc(-c2ccc([N+](=O)[O-])cc2)s1)SC | 99.2 µM | > 100 µM | > 100 µM | > 100 µM | > 100 µM | 63.2 µM | > 100 µM | > 100 µM | > 100 µM | > 91.6 µM |  |  |  |  |  |  |  |  |  | 
COc1ccc(-c2cc3c(c4cc(OC)ccc24)C(=O)OC3=O)cc1 | > 100 µM | > 100 µM | > 100 µM | > 100 µM | > 100 µM | > 100 µM | > 100 µM | > 100 µM | > 100 µM | > 100 µM |  |  |  |  |  |  |  |  |  | 
CCN(Cc1cc(Nc2nc(C)cn3c(-c4cn[nH]c4)cnc23)sn1)C(C)(C)CO | 2.26 µM | 2.08 µM | 10.1 µM | 0.513 µM | 10.4 µM | 9.57 µM | 9.93 µM | 6.58 µM | 11 µM | 7.35 µM | 0.0227 µM | 222 nM | 2410 nM | < 0.0106 µM | 32.8 nM | 0.11 µM | 0.622 µM | 0.0822 µM | 0.0411 µM | 0.0293 µM
COc1ccc2[nH]cc(-c3ccc(-c4c[nH]c5ccc(OC)cc45)s3)c2c1 | 4.46 µM | 17.6 µM | 21 µM | > 42.9 µM | 6.67 µM | 34.6 µM | > 46.5 µM | 18.4 µM | > 49.9 µM | 51 µM | 1.56 µM | 5050 nM | 2830 nM | 8.95 µM | 2370 nM | 10.1 µM | 11.4 µM | 4.87 µM | 5.86 µM | 18.1 µM
CCNC(=O)C1CCCN1C(=O)C(CCCN=C(N)N)NC(=O)C(CC(C)C)NC(=O)C(CC(C)C)NC(=O)C(Cc1ccc(O)cc1)NC(=O)C(CO)NC(=O)C(Cc1c[nH]c2ccccc12)NC(=O)C(Cc1cnc[nH]1)NC(=O)C1CCC(=O)N1 (stereo not drawn) ([pGlu]HWSYLLRP-NHEt; configuration not given here) | > 100 µM | > 100 µM | > 100 µM | > 100 µM | > 100 µM | > 100 µM | > 100 µM | > 100 µM | > 100 µM | > 100 µM | > 100 µM | > 100000 nM | 74300 nM | > 100 µM | > 100000 nM | > 100 µM | > 100 µM | > 100 µM | > 100 µM | > 100 µM
C/C=C(\C)C(=O)NC1=CC[C@@]2(C)C(=CCC3C2CC[C@@]2(C)C3CC[C@@H]2C(C)N(C)C)C1=O (stereo partly drawn) | 24 µM | 2.95 µM | 9.38 µM | 36.3 µM | 13.7 µM | > 64.1 µM | 9.36 µM | > 59.5 µM | > 77.9 µM | 22.9 µM | 7.79 µM | 1390 nM | 1910 nM | 4.65 µM | 2850 nM | 15.9 µM | 2.88 µM | 7.06 µM | 10.1 µM | 7.52 µM
CN(Cc1ccccc1)C(=NC#N)N(Cc1ccccc1)Cc1ccccc1 | 55.5 µM | 33.3 µM | 55.4 µM | 67.5 µM | 44.4 µM | > 100 µM | 54.4 µM | > 100 µM | > 100 µM | 40.7 µM |  |  |  |  |  |  |  |  |  | 
CN(CCO)CC[C@H](CSc1ccccc1)Nc1ccc(S(=O)(=O)NC(=O)c2ccc(N3CCC([C@@H](O)c4ccccc4-c4ccc(Cl)cc4)CC3)cc2)cc1S(=O)(=O)C(F)(F)F | > 72.9 µM | 3.25 µM | 2.94 µM | 7.46 µM | 13.8 µM | 8.57 µM | 30.6 µM | > 100 µM | > 100 µM | 4.28 µM | 4.4 µM | 1690 nM | 160 nM | 2.5 µM | 3180 nM | 2.77 µM | 4.85 µM | 21 µM | 11.5 µM | 1.41 µM
